What all share (assay type): functional
In assay [1] the test system is Spodoptera littoralis. Put plainly: Insecticidal activity against Spodoptera littoralis larvae dosed into hemolymph injection measured per 1000 mg of larval body weight measured after 48 hrs.
The test system of assay [2] is Spodoptera littoralis. Put plainly: Insecticidal activity against Spodoptera littoralis larvae after 6 days by chronic feeding assay. The note with it: 144 h.
Assay [3] has as its system Spodoptera littoralis. Put plainly: Insecticidal activity against Spodoptera littoralis larvae after 5 days by topical contact assay.
The next assay deals with Aspergillus fumigatus. Put plainly: Antifungal activity against Aspergillus fumigatus by serial dilution assay.
Another assay has as its system Candida albicans. Put plainly: Antifungal activity against Candida albicans by serial dilution assay.
A further assay concerns Cladosporium cucumerinum. Put plainly: Antifungal activity against Cladosporium cucumerinum at 25 nmol by bioautographic method.

The structures appear in SMILES notation. Converted amounts (≈) assume the structure as drawn.

With `COC[C@@H]([C@H](O)[C@H](O)C(=O)NCC[C@H](C)c1nc(/C=C/C[C@@H]2O[C@]3(C[C@@H](O)[C@@H]2C)O[C@H]([C@H](C[C@H](O)[C@H](C)[C@H](O)[C@H](C)/C=C(C)/C(C)=C/C=C/C(C)=C\C#N)OC)[C@H](OP(=O)(O)O)C3(C)C)co1)N(C)C` [CALYCULIN A], in the assay on Spodoptera littoralis [1], the LD50 is 1 µg.
On to `CO[C@H]1C[C@]2(O[C@H]([C@@H](C[C@H](O)[C@H](C)[C@H](O)[C@H](C)/C=C(C)/C(C)=C/CC/C(C)=C\C(N)=O)OC)[C@H](OP(=O)(O)O)C2(C)C)O[C@H](C/C=C/c2coc(C)n2)[C@H]1C` [SWINHOEIAMIDE A], for which the LC50 (usually the concentration lethal to half of the exposed cells or organisms) in the assay with Spodoptera littoralis [2] is 2.98 µg/mL (≈ 3.74 µM). Moreover, the LD50 with Spodoptera littoralis [3] worked out at 10 µg; in the assay with Spodoptera littoralis [1], 0.98 µg. The MIC (in general, the smallest concentration in the dilution series that meets the test's criterion for growth inhibition) against Aspergillus fumigatus was determined as 1 µg/mL (≈ 1.25 µM); with Candida albicans, 1.2 µg/mL (≈ 1.51 µM). Moreover, the “inhibition zone (IZ)” value in the assay with Cladosporium cucumerinum was 14 mm.

For the origin of these results see ChEMBL document CHEMBL1150615, “Swinhoeiamide A, a new highly active calyculin derivative from the marine sponge Theonella swinhoei” (2002).
